Source: patent US20110152166A1, “METHOD OF MODULATION OF PROTEIN PHOSPHORYLATION-DEPENDENT CONFORMATIONAL TRANSITIONS WITH LOW MOLECULAR WEIGHT COMPOUNDS” (priority 2006, published 2011)
Substitutions are numbered along the chain they refer to. Where two headings read alike, the source gives them in different places. Square brackets hold non-standard residues; d marks the D form. Ends that are not written are not given here. pS = N[C@@H](COP(=O)(O)O)C(=O)O

How the values were obtained:
GST-PDK1 [Val127Leu] = target: T1, GST-PDK1 [Val127Leu] (Homo sapiens, UniProt O15530, V127L); test: PDK1 activity assay with T308tide; assay type: biochemical; settings: for activation of PDK1 mutant (in words): PDK1[Val127Leu]
T1 construct: different protein constructs, comprising the full length protein or the catalytic domain alone; made in house; host or cells: HEK293 cells (pEBG-2T-PDK1 mutant)
T1 sequence (O15530 1-556 V127L): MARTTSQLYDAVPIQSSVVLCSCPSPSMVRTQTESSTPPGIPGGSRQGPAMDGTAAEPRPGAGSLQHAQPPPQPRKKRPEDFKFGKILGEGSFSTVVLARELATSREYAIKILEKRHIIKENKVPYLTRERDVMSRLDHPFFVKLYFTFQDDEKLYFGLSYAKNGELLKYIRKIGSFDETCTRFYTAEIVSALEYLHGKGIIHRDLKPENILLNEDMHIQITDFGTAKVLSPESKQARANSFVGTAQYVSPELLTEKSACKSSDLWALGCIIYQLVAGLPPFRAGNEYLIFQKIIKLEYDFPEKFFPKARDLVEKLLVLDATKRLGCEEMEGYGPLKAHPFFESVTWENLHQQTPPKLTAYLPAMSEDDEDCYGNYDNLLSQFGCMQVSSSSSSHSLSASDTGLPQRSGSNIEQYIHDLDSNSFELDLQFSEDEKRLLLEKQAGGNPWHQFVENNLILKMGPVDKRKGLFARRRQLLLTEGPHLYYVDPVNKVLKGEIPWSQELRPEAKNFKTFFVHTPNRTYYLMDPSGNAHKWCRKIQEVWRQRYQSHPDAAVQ
Procedure: Protein kinase activity tests were performed essentially as previously described (Balendran et al., 2000; Biondi et al., 2000; Biondi et al., 2001). Substrates used were either MBP (for PKCζ or polypeptides (Crosstide for PKB, S6K, SGK and PRK2; T308tide for PDK1, and Kemptide for PKA). PKA (Sigma) was measured in the presence of 100 μM cAMP. Alternatively, assays were performed in a 96 well format, aliquots spotted on p81 phosphocellulose papers (Whatmann), washed in 0.01% phosphoric acid, dried, and then exposed and analysed using Phospholmager technology (Storm, Molecular Dynamics). Activity measurements were performed in duplicates with less than 10% difference between duplicate pairs. Experiments were repeated at least twice, although most of the experiments were repeated multiple times, with similar results.
PDK1 activity assay was performed in a 20 μl mix containing 50 mM Tris-HCl pH 7.5, 0.05 mg/ml BSA, 0.1% β-mercaptoethanol, 10 mM MgCl2, 100 μM [γ^32P]ATP (5-50 cpm/pmol), 0.003% Brij, 150 ng PDK1, and T308tide (from 0.05 to 1 mM). PDK1 specific activity was approximately 5 U/mg (when measured at 1 mM T308tide). The effect of small compounds on PDK1 was repeated with proteins from different purification batches and with different protein constructs, comprising the full length protein or the catalytic domain alone, with similar results. […] This variability may be due to the PIFtide/compound-stimulated autophosphorylation of the activation loop in certain preparations having less than a 1:1 molar phosphorylation stoichiometry at this site.
PDK1 activity was measured at room temperature using a polypeptide substrate derived from the activation loop phosphorylation site of PKB, T308tide (0.1 mM). […] GST-PDK1 wt was purified in numerous occasions and the maximal activation level of different batches varied between 3 and 8 fold activation with PIFtide or compound 1. Variations in the basal activity and fold activation were also observed in mutants. Therefore, comparisons in the maximal level of activation between mutants should be performed with care. The data shown are from an experiment where PIFtide concentrations were tested between 50 nM and 20 µM and compound 1 concentrations were between 5 μM and 200 μM, in triplicate. AC50 and max. activity were estimated by fitting the data to a hyperbola using Kaleidagraph software. One Unit of PDK1 activity was defined as the amount required to catalyse the phosphorylation of 1 nmol of the T308tide in 1 min.

GST-PDK1 1-556 = target: T2, GST-PDK1 1-556 (Homo sapiens, UniProt O15530); test: Surface plasmon resonance, GST-PDK1 binding to biotin-PIFtide and displacement by compounds; settings: competition, pre-incubation with PDK1
T2 construct: made in house; host or cells: HEK293
T2 sequence (O15530 1-556): T1 sequence (O15530 1-556 V127L) with L127V
Procedure: FIG. 3—Small compounds displace the binding of PDK1 1-556 to the HM peptide derived from its substrate PRK2, PIFtide. Surface plasmon resonance measurements were carried out on a BiaCore system to measure the interaction between GST-PDK1 and biotin-PIFtide coupled to a streptavidin-coated chip. (A) Direct measurement of PDK1 interaction with biotin-PIFtide. PDK1 was injected at the indicated concentrations (nM). For the following competition experiments, PDK1 45 nM was used. (B) PDK1 interaction with biotin-PIFtide was abolished by pre-incubation with PIFtide. […] The data points represent the maximal response units obtained after 30 s injection in the presence of the indicated concentration of compound. In (A) and (B) the spikes at the start and end of injection have been eliminated for clarity.
Binding of PDK1 to PIFtide was analysed by surface plasmon resonance on a BiaCore 3000 system using a streptavidin-coated Sensor chip (SA) and biotin-PIFtide, as previously described (Biondi et al., 2001). Biotin-PIFtide was bound to the chip to a level of 15 to 25 response units in different experiments. GST-PDK1 bound to biotin-PIFtide with an affinity of 90 nM, in good agreement with previous data obtained using the BiaCore system. For interaction-displacement assays, GST-PDK1 (60 nM) was injected (30 μl/min) in a buffer containing 10 mM HEPES pH 7.5, 150 mM NaCl, 0.005% Tween20, 1 mM DTT and 1% DMSO, in the presence or absence of compounds. GST-PDK1 was pre-incubated with compounds for 1 to 10 minutes before injection into the system, with similar results. Experiments were performed at least twice using different biotin-PIFtide coated chips, with similar results obtained on each occasion.

Compound | AC50 (GST-PDK1 [Val127Leu]; GST-PDK1 [Val127Leu]) | displacement of PDK1 binding to biotin-PIFtide (in words) (GST-PDK1 1-556) | activation of PDK1 mutant (in words) (GST-PDK1 [Val127Leu]) | Max. activity (GST-PDK1 [Val127Leu]; GST-PDK1 [Val127Leu]) [U/mg] | AC50 (GST-PDK1 [Val127Leu]; GST-PDK1 [Val127Leu], read-out: AC50) [nM]
O=C(O)CSC(CC(=O)c1ccc(Cl)cc1)c1ccccc1 (centres unmarked) [Compound 1] | No Effect | able to disrupt the binding | – | – | –
COC(=O)CSC(CC(=O)c1ccc(Cl)cc1)c1ccccc1 (centres unmarked) [Compound 2] | – | did not displace the binding significantly | – | – | –
P-HM-RSK: phosphorylated HM polypeptide of RSK: KGAGGGGFRGFS(P)FVA (KGAGGGGFRGF[pS]FVA) | – | – | fully activated | – | –
REPRILSEEEQEMFRDFDYIADWC [PIFtide, reference compound] | – | abolished this interaction | fully activated | 0.99 ± 0.08 | 120 ± 30
